Source: patent US9095534B2, “Intermittent dosing of nitric oxide gas” (SENSORMEDICS CORPORATION, priority 2004, dated 2015)

Tests used:
[1] = test system: mycothiol in wild type M. smegmatis; experiment: Mycothiol level by HPLC after exposure to NO gas; assay type: cell-based, Mycobacterium smegmatis; settings: 400 ppm NO gas, compared to exposure to air, FIG. 11
Description: Further experiments were conducted to assay and measure the mycothiol level using HPLC in wild type M. smegmatis after exposure to 400 ppm NO gas and were compared to mycothiol level after exposure to air.

[2] = test system: mycothiol-deficient Mycobacterium smegmatis Mutant MshA; experiment: Survival of mycothiol-deficient mutant versus wild type on exposure to NO gas; assay type: cell-based; settings: 200 ppm NO gas; FIG. 10
Description: (§1) Additional studies were performed to test the hypothesis that the effect of NO gas in killing microorganisms is related to thiol function. […] This may be due to Mycobacteria having an exceptional thiol, mycothiol, that maintains the redox balance in the cell and protects the cell from nitrosative and oxidative stress. In order to test this hypothesis, sensitivities to NO gas was compared between mycothiol-deficient Mycobacterium smegmatis Mutant MshA to its wild type counterpart, mc^2155 by exposing both strains to 200 ppm of NO gas. MshA is an enzyme needed in mycothiol biosynthesis.

Mycobacteria = experiment: Sensitivity of various microorganisms to NO gas damage; assay type: cell-based; settings: relative to other microorganisms studied
Description: as §1

E. coli = experiment: Survival of bacteria under cycled high/low NO gas exposure (cfu/ml); assay type: cell-based; settings: 160 ppm for 30 minutes then 20 ppm for 3.5 hours, cycled every 4 hours for 24 hours; compared to air; FIG. 9
Description: (§2) The effectiveness of the intermittent nigh dose delivery of […] oxide gas in combating microorganisms was tested and verified. Briefly, the experimental methods were as follows. Inoculums of varying bacteria was prepared to a suspension of 2.5×10^8 cfu/ml, and diluted 1:1000 in sterile normal saline. Three milliliters of the inoculums were used per well in a sterile culture place. Exposure of the inoculums were performed in an exposure chamber, which has been described for example, in Gliafarri, A. et al., “A direct nitric oxide gas delivery system for bacterial and mammalian cell cultures,” Nitric Oxide. 12(3):129-40 (May 2005), which is hereby incorporated by reference as if fully set forth herein. The inoculums were exposed to 160 ppm of NO gas at a flow rate of 2.5 liters per minute for 30 minutes followed by exposure to 20 ppm of NO gas for 3.5 hours. The exposure to high and low concentrations of NO gas was repeatedly cycled every 4 hours for 24 hours. At various times (e.g., 0, 4, 8, and 12 hours), samples were taken and plated to determine the survivability of the bacteria as determined by counting cfu/ml.

S. aureus (ATCC #25923) = experiment: as above; assay type: cell-based; settings: 160 ppm for 30 minutes then 20 ppm for 3.5 hours, cycled every 4 hours for 24 hours; compared to air; FIG. 6
Description: as §2

[3] = test system: P. aeruginosa (ATCC #27853); experiment: as above; assay type: cell-based; settings: 160 ppm for 30 minutes then 20 ppm for 3.5 hours, cycled every 4 hours for 24 hours; compared to air; FIG. 7
Description: as §2

[4] = test system: P. aeruginosa (clinical strain from Cystic Fibrosis); experiment: as above; assay type: cell-based; settings: 160 ppm for 30 minutes then 20 ppm for 3.5 hours, cycled every 4 hours for 24 hours; compared to air; FIG. 8
Description: as §2

Structure (SMILES): [N]=O [nitric oxide]
- level of mycothiol in wild type M. smegmatis [1]: reduced compared to exposure to air
- sensitivity of MshA mutant to NO gas versus wild type mc^2155 [2]: more sensitive to NO gas than its wild type counterpart
- time to kill MshA mutant versus wild type mc^2155 [2]: killed in less time than its wild type counterpart
- sensitivity of Mycobacteria to NO gas damage (Mycobacteria): less sensitive to NO gas damage
- survival of E. coli (E. coli): effective method of killing the bacteria
- survival of S. aureus (ATCC #25923) (S. aureus (ATCC #25923)): effective method of killing the bacteria
- survival of P. aeruginosa (ATCC #27853) [3]: effective method of killing the bacteria
- survival of P. aeruginosa (clinical strain from Cystic Fibrosis) [4]: effective method of killing the bacteria
